How the values were obtained:
Format in all cases: in vivo, piglets
[1] = system: colistin-resistant Enterobacteriaceae; experiment: Piglet model: faecal counts of colistin-resistant Enterobacteriaceae; conditions: during follow-up (14 days)
Experimental: (§1) The model was used according to the synopsis depicted in FIG. 1.
(§2) Colistin sulfate (Colivet), a non absorbable antibiotic, used in human decontamination, was given once per day orally in this experiment. Two regimens were tested: 7.5 mg/kg/d and 15 mg/kg/d, equivalent to human doses 500 mg/d and 1000 mg/d, respectively. The duration of the treatment was 3 days. The objective of such very high doses, given over a short period of time, was to obtain a rapid eradication of ESBL-producing Enterobacteriaceae without the emergence of strains resistant to colistin. • E. coli Nissle strain 1917 (EcN1917, Mutaflor). The dose was calculated to administrate the highest dose recommended in humans: 2 enteric-coated capsules of 2.5-25×10^9 viable bacteria, given orally, once daily during 6 days.
(§3) Fresh faecal samples were collected from each piglet, diluted ten-fold (w/v) in peptone broth containing 30% glycerol, and faecal suspension aliquots were stored at −80° C. until microbiological analysis.
(§4) Before analysis, frozen aliquots were thawed by standing approximately 1 hr at room temperature and faecal suspensions were serially diluted in saline before plating on appropriate agar plates.
Cefotaxime- and colistin-resistant Enterobacteriaceae were counted using Drigalski agar supplemented with 1.5 mg/L cefotaxime and 10 mg/L colistin base respectively. […]

[2] = system: ESBL-producing Enterobacteriaceae; experiment: Piglet model: faecal counts of cefotaxime-resistant (ESBL-producing) Enterobacteriaceae after colistin decontamination and E. coli Nissle 1917 repopulation
Experimental: as §1
In summary, piglets were treated sequentially with: • cefdinir (4 mg/kg/d) during 2 days, in order to enhance the carriage of ESBL-producing bacteria, • colistin sulfate (destroy phase):
as §2, §3, §4
Total Enterobacteriaceae were counted using Drigalski agar (BioRad Laboratories, Marnes-La-Coquette, France) plates.
Cefotaxime- and colistin-resistant Enterobacteriaceae were counted using Drigalski agar supplemented with 1.5 mg/L cefotaxime and 10 mg/L colistin base respectively.
Bacterial counts which were below the detection threshold (2 log CFU/g of faeces) were considered to be equal to the 2 log CFU/g for statistical analysis.

[3] = Microbiological assay of faecal concentrations of colistin; conditions: 15 mg/kg/d colistin sulfate
Experimental: Fecal concentrations of colistin were measured by a microbiological assay using agar medium 10 (Difco, Becton-Dickinson, Le Pont-de-Claix) and Bordetella bronchiseptica ATCC4617 as indicator strain. The limit of detection was 1.5 μg of colistin base per g of feces.
as §3

With colistin sulfate the “selection of strains resistant to colistin” value [1] was “no selection of strains resistant to colistin was observed”, the “efficacy to eradicate ESBL-producing enterobacteria (destroy phase)” value ([2]; 15 mg/kg/d compared with 7.5 mg/kg/d, orally once per day, 3 days) was “best efficacy” and the “decolonization of ESBL-producing enterobacteria” value ([2]; colistin for three days followed by six days of E. coli strain Nissle 1917) was “rapid and efficacious decolonization”. The “efficacy in the restore phase” value ([2]; group which had received the high dose of colistin) was “best efficacy” and the “faecal concentrations relative to the MIC” value [3] was “at least 10 fold”.

— patent US20130323217A1, “COMPOSITIONS AND METHODS FOR THE CONTROLLED REPOPULATION OF GRAM-NEGATIVE BACTERIA IN THE COLON” (Da Volterra, priority 2010, published 2013)
